{"source": "patent US20130039956A1", "about": "“USE OF NITROCARBOXYLIC ACIDS FOR THE TREATMENT, DIAGNOSIS AND PROPHYLAXIS OF AGGRESSIVE HEALING PATTERNS” (priority 2010, published 2013)", "key": {"human dermal fibroblasts": {"system": "human dermal fibroblasts", "assay": "Extra cellular matrix production (collagen-1) in response to TGF-β2 in dermal fibroblasts", "type": "cell-based", "experimental": "In order to determine whether PPRA gamma stimulation due to nitrated fatty acids plays a role in the inventive inhibition of an aggressive healing pattern to an irritating stimulus, human dermal fibroblasts were investigated. A dominant-negative PPAR gamma mutant (L466A) cell clone was generated by polymerase chain reaction-based site-directed mutagenesis. Presence of PPAR gamma or absence was investigated using a PPAR gamma antibody reaction which was determined using an enhanced chemiluminescence detection system. Furthermore, one cell series was incubated with a selective irreversible PPAR gamma ligand (GW9662, 1 μmol), which effectively blocks PPAR gamma receptors.\nSequential cultivation of human dermal fibroblasts was performed in EMEM containing 5 mM glucose supplemented with 10% FCS under standard cultivation conditions. Cells were allowed to grow to confluence in a 96-well plate. Wild-type fibroblasts and PPAR gamma deficient fibroblasts were investigated by a set-up of 2×10 sample sets comprising: (1) blank control; (2) stimulation control; (3) preincubation with the PPAR gamma antagonist GW9662 (Cayman Chemical); (4) preincubation with the PPAR agonist troglitazone (25 μmol). In 2×4 sample sets, native fatty acids were added to the medium to achieve a final concentration of 10 and 50 μmol, respectively; in another 2×4 sets the nitrated fatty acids were added to the medium in the same concentration, while 2×2 sets served as controls. In 10 of the sets, TGF-β2 was added to the culture medium at a concentration of 25 ng/ml. Cultivation was continued for 48 hours and then processed in order to analyze collagen-1 as measured by enhanced chemiluminescence detection of immuncomplexes."}, "[1]": {"system": "human umbellical endothelial cells (HUVEC)", "assay": "Adhesion, propagation and growth of endothelial cells on coated polystyrene films", "type": "cell-based", "conditions": "days 3, 7, 14, compared with native FA", "experimental": "Polystyrene scaffolds were prepared and pretreated in the same manner as performed in example 1 by using the same nitrocarboxylic acids as listed in table 1. The film samples were placed in a culture dish containing a gel matrix, in which human umbellical endothelial cells (HUVEC) had been allowed to grow to confluence. The culture medium consisted of 5% FCS, which was replaced every 5 days. Cultivation was performed according to standard conditions. Films were evaluated at days 3, 7, and 14 after careful extraction from the culture dishes, rinsing with saline solution, and staining with methylene blue. Using a reflected light microscope, the films were immediately examined to evaluate the following: Propagation of cells to the film center, cell confluidity, multilayer formation, and cell shape."}, "adult rats": {"system": "adult rats", "assay": "Fibrogenesis after traumatic and thermal tissue damage in dermal wound healing in vivo", "set-up": "species or system rat", "conditions": "100 micromol ethanolic solution on wound margins, 8 weeks, compared with native FA", "source_text": "In order to determine the effects of nitrated fatty acids on fibrogenesis in response to traumatic and thermal tissue damage, an in vivo rat model was investigated. Paravertebral scalpel incision (two on each side) of approximately 1 cm in length and a depth of 1 mm were made in 12 anesthetized adult rats (150-200 g) of either sex after disinfection. Bleeding was stopped by manual compression. The entire length of the wound margins of one incision at each side were additionally cauterized using a 3-mm ball electrode connected to a DRE ASG-120 electrosurgical generator. Wound margins of one side were then covered with a sterile ethanolic 0.9% saline solution, or with a sterile ethanolic solution of the fatty acids (100 micromol), or with a sterile ethanolic solution of the nitrated fatty acids (100 micromol) using a sterile brush. A 1×10 mm cotton string that was bathed in the ethanolic solution containing 0.9% saline, native fatty acid or nitrated fatty acids was placed upon the incision site that had been closed by manual adaptation. The adaptation result and the cotton strings were fixed by an adhesive film. The animals were housed and fed according to institutional standards. The wound films were carefully removed after 2 weeks. Animals were euthanized after 8 weeks. The skin wounds were harvested, including the epidermis, dermis, and subcutaneous loose tissue with the surrounding normal tissue. The removed tissues were fixed in formalin and then embedded in paraffin. The cutting plane was vertical to the longitudinal axis of the former incisions. Slices (4-6 μm) were stained with H&E and Masson trichrome staining to evaluate the amount and density of collagen."}, "[2]": {"system": "Human peripheral blood mononuclear cells (PBMCs)", "assay": "Adhesion of serum proteins and monocyte activation induced by coated silicone", "type": "cell-based", "conditions": "dip-coated silicone, PBMCs 3 days; compared with native FA", "experimental": "In order to determine the effect of coating implant materials with nitro fatty acids to reduce adsorption of adhesion molecules and monocyte activation, sterile silicone sheets were out in small pieces and coated with respective nirocarboxylic acid and the corresponding native fatty acids by dip coating. Uncoated silicone pieces served as controls. For each fatty acid two sets of silicone pieces were bathed in freshly drawn human serum for 1 hour at 37° C., and another two sets were bathed in saline solutions. One set of both coated and uncoated pieces was analyzed immediately for adhesion proteins and the other set was placed in 96-well plates after rinsing the silicone pieces. Human peripheral blood mononuclear cells (PBMCs), isolated from three healthy subjects, were added to each well. Wells were incubated for 3 days under standard conditions. Culture supernatants were assayed for IL-1beta, IL-6, IL-8, and chemoattractant protein 1 (MCP-1) levels at the start and end of experiments.\nBefore analyzing the silicone pieces for protein adsorption, they were bathed in saline for 5 minutes. Thereafter, one side was rinsed with saline as performed for both sides in the set used for culturing. There was marked adsorption of fibrinogen and […] C5b-9 on the uncoated silicone. […] No protein was found on the surface of the nitro fatty acid-coated sample that was rinsed, thus, indicating the weak adherence of serum proteins."}, "[3]": {"system": "Murine macrophage-like cells RAW 264.7 and murine L929 fibroblasts", "assay": "Monocyte/fibroblast co-culture on coated surgical suture material", "type": "cell-based", "conditions": "dip-coated suture material, 24 and 48 hours; compared with native FA", "source_text": "In order to determine immunoreactions to foreign material and its consequence on fibrogenesis, co-cultures of fibroblasts and monocytes were used. Commercially available suture materials (propylene, polyamide, and silk) were dip-coated with corresponding native and nitrated fatty acids. Untreated suture material served as control. Treated and untreated suture materials were out in small pieces and placed in a 96-well plate.\nMurine macrophage-like cells RAW 264.7 and murine L929 fibroblasts were cultured to a population density of 5×10(5) each. Cell suspensions were merged achieving a cellularity of approximately 2.5×10(5) cell/ml of each cell population which were added to the wells. The suture material samples were fully covered by the suspension. Wells were continuously and gently shaken throughout the incubation period.\nSupernatants were collected for assays after 24 and 48 hours and analyzed for profibrotic cytokines IL-13, IL-4, and IL-6, TGF-β1, collagen I."}, "Cardiomyocytes": {"system": "Cardiomyocytes", "assay": "TGF-β1-inducible formation of extracellular matrix in cardiomyocytes under shear stress", "type": "cell-based", "conditions": "10-100 μmol, shear stress up to 100 dyn/cm^2; compared with native FA", "experimental": "Characterizing features of the fibrous remodelling in the heart are accentuated expression and deposition of extracellular matrix proteins (ECM). This has been attributed to increased mechanical forces via autocrine release of transforming growth factor-beta (TGF-beta). […] An established cell culture model was used to investigate the effect of shear stress on cardiomyocytes. Cardiomyocytes were cultured and transferred to a matrigel substrate. Plates with confluenced cells were placed into a shear force injury device (SFID). The SFID design is based on a cone-and-plate construction which is a well-defined rheological model in which a homogenously distributed laminar flow over the surface of the cells is generated by a rotating cone. The conical surface is positioned above a stationary flat plate and the fluid medium between these two surfaces is set in motion by rotating the cone to create a uniform level of fluid shear stress throughout the entire surface of the cells cultured on the coverslips.\nA peak shear stress of 100 dyn/cm^2 could be applied without significant cell detachment enabling a maximum injury severity of 46%. Cells were exposed to FCS 1% without or with nitro-fatty acid, and the corresponding native fatty acid in a dosage range between 10 μmol and 100 μmol, 10 seconds before shear force application. Shear force peaks up to 100 dyn/cm^2 with a duration of 30 msec each with a repetition frequency of 60/minute were applied for 5, 10, 30 and 60 minutes. Thereafter the cell plates were washed and placed in FCS 1% for 24 hrs. The supernatant of the shear force investigation as well as that of the following culture phase was analysed. It could be shown that TGF-beta and ECM proteins (collagen I, fibronectin, laminin, elastin) increased after treatment in the control groups."}, "[4]": {"system": "Tracheas of adult Wistar rats", "assay": "Tissue damage due to barotrauma ex vivo (tracheal rings)", "type": "cell-based", "conditions": "inhibitor 10 micromol, 6 hours before traumatization", "experimental": "In order to determine the effects of nitrated fatty acids on mechanical trauma to tracheal cells, an ex vivo model was established. Tracheas of adult Wistar rats sacrificed with thiopental given intraabdominally were carefully resected (harvested). Whole (intact) tracheas were cultured in DMEM 10 (Sigma) supplemented with antibiotic/antimycotic drugs for 48 hours at 37° C. Tracheas were cut into five pieces of equal size. One piece was immediately analyzed, two were bathed in 0.9% saline, one was bathed in a solution containing native fatty acid in SDS (1%), and one was bathed in a solution containing nitro fatty acid, respectively, for 15 minutes each. The inner diameters of the tracheal rings were measured. A non-compliant balloon catheter for use in vascular interventions was chosen, so that the nominal balloon diameter was 15-20% larger than that of the trachea. One tracheal ring pretreated with 0.9% saline was left untreated; the other prepared tracheal rings were mounted on the balloon catheter, which was inflated to a pressure of 4 atm thereafter. Balloons were kept inflated for 4 hours, while being positioned in the culture medium. Thereafter, the tracheal rings were further cultivated in separate vials for 24 hours. In a separate set of investigations, sense/antisense ODNs for HO-1 (Invitrogen) directed against the translation initiation codon in the HO-1 cDNA was used to inhibit hemoxydase-1 synthesis. The cells were transfected using the Superfect transfection reagent (Qiagen) before traumatization. In another set of experiments, the HO inhibitor SnPP IX (Porphyrin Products, London, UK) was added to the culture medium 6 hours before traumatization at a dose of 10 micromol.\nFor analysis, the rings were cut into small strips using a no touch technique. Viability was tested using a MTT assay and apoptosis using a TUNEL assay. Anti-HO-1 antibodies (StressGen, Tebu, Le-Perray-en-Yvelines, France) were measured by Western blot and immunohistochemistry."}, "fibroblasts": {"system": "fibroblasts", "assay": "Mechanical alteration of fibroblasts (cyclic stretching of coated polypropylene meshes)", "type": "cell-based", "conditions": "day 21 to end of follow-up", "source_text": "In order to simulate the effects of chronic shear forces on a healing wound, an in vitro model was established. A flat balloon was placed on the bottom of a Petri dish. A silicone sheet was placed above and sealed with the side of the Petri dish. Then a 3 mm agar layer was casted on top of the sheet. Commercially available polypropylene meshes for hernia repair (microporous mesh, a low-weight and macroporous mesh with absorbable polyglactin filaments, and a heavy-weight and microporous mesh) were placed on the agar plates and fixed at 4 points at the side of the Petri dish. This setting enabled stretching of the meshes by filling the balloons with air, which was performed at 10-second intervals using an automated pumping device. The model can be used to evaluate the effect of three-dimensional (3D) shear forces on cell growth during cell cultivation. Preincubated suspensions of fibroblasts (1.5×10(5) cells) in a culture medium (10% FCS) were added to the culture dishes and allowed to grow for 48 hours. Cyclic stretching was started at day 3. Histological analysis was performed from the central portions of the meshes at day 7, at day 21, and after 8 weeks. The scaffolds were detached from the culture plate and carefully rinsed. Then, they were cut into pieces, casted, and further processed for standard histology and immunohistology. Care was taken to achieve a cutting plane that was vertical to the surface plane of the meshes. Histological analysis evaluated the cellularity, the content of extra cellular matrix (ECM), and the magnitude of protein synthesis. Meshes were dip-coated with native and nitro fatty acids or left blank in the same manner as in example 1. The uncoated meshes served as controls."}}, "data": [{"compound": "Cc1c(C)c2c(c(C)c1O)CCC(C)(COc1ccc(CC3SC(=O)NC3=O)cc1)O2", "note": "(stereo not shown) [PPAR agonist, troglitazone, reference compound]", "values": [{"measurement": "reduction of collagen-1 concentrations as compared to the control", "setting": "human dermal fibroblasts; TGF-β2 stimulated, PPAR-positive cells, 25 μmol", "result": "35-40%"}]}, {"compound": "CCCCCC=CCC=C(C/C=C\\CCCCC(=O)O)[N+](=O)[O-]", "note": "[compound 20, 9-nitro-cis-6,9,12-octadecatrienoic acid]", "values": [{"measurement": "Relative differences: effect on adhesion, propagation and growth of endothelial cells", "setting": "[1]", "result": 0}, {"measurement": "Relative effect on fibrogenesis (scar formation) in dermal wound healing", "setting": "adult rats", "result": "+"}, {"measurement": "Relative effect on serum protein adhesion and monocyte activation", "setting": "[2]", "result": "+"}, {"measurement": "Relative effect on profibrotic cytokines and collagen I on suture material", "setting": "[3]", "result": 0}, {"measurement": "Relative effect on collagen-1 production in response to TGF-β2", "setting": "human dermal fibroblasts; 10 and 50 μmol, TGF-β2 25 ng/ml, 48 hours, compared with native FA", "result": "+"}, {"measurement": "Relative efficacy to suppress TGF-beta and ECM proteins in cardiomyocytes", "setting": "Cardiomyocytes", "result": "+"}]}, {"compound": "C=CC1=C(C)C2=Cc3c(C=C)c(C)c4[n]3[Sn]([Cl])([Cl])[n]3c(c(C)c(CCC(=O)O)c3=CC3=NC(=C4)C(C)=C3CCC(=O)O)=CC1=N2", "note": "[HO-1 inhibitor, reference compound]", "values": [{"measurement": "HO-1 production", "setting": "[4]", "result": "reduced the HO-1 production to the lower detection limit or complete absence"}]}, {"compound": "nitrooleic acid", "values": [{"measurement": "density of actinmyosin filaments in fibroblasts", "setting": "fibroblasts", "result": "more actin-myosin fibers (intra-cellular green filaments) than fibroblasts within the coated meshes"}]}, {"compound": "O=C(Nc1ccccc1)c1cc([N+](=O)[O-])ccc1Cl", "note": "[PPAR gamma antagonist, reference compound]", "values": [{"measurement": "collagen-1 after TGF-β2 stimulation", "setting": "human dermal fibroblasts; PPAR gamma-positive and -negative cells", "result": "marked increase of collagen-1"}]}]}
